Results published in US20030134832A1, “Novel tibolone formulations” (priority 2001, published 2003).

| Compound | pH of 1% w/v aqueous solution |
| --- | --- |
| O=C([O-])CC(O)(CC(=O)[O-])C(=O)[O-].[Na+].[Na+].[Na+] [Sodium Citrate, sodium citrate] | pH 8.75 |
| O=C([O-])O.[Na+] [Sodium Bicarbonate, sodium bicarbonate] | pH 8.2 |
